Experimental data from ChEMBL document CHEMBL1201862, “PubChem BioAssay data set” (2004).
The source made the active and inactive calls.

How the values were obtained:
[1] = target: T1, RNA-binding protein pos-1 (Caenorhabditis elegans, UniProt G5EF15); test: inhibitors of POS-1/mex-3 RNA binding, dose response, biochemical, fluorescence polarization (AID 1964);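 note: purified POS-1 fused to maltose binding protein made in E. coli; potency of compounds blocking POS-1 binding to fluorescent RNA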
T1 sequence (G5EF15 whole entry): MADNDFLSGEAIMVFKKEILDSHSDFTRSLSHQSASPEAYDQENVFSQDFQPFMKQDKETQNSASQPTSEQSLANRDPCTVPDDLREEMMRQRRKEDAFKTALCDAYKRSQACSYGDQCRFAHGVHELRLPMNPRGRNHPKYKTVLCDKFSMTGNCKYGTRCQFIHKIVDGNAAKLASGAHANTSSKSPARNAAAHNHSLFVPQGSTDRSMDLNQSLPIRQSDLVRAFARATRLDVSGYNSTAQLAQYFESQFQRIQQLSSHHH

[2] = HEp-2 cell cytotoxicity, dose response, cytotoxicity control for RSV inhibitor project, HTS (AID 2410); assay type: functional; conditions: human respiratory syncytial virus
[3] = target: T2, Zinc finger protein mex-5 (Caenorhabditis elegans, UniProt Q9XUB2); test: MEX-5/TCR-2 RNA interaction inhibitors, dose response, biochemical, C. elegans, fluorescence polarization (AID 1960)
T2 sequence (Q9XUB2 whole entry): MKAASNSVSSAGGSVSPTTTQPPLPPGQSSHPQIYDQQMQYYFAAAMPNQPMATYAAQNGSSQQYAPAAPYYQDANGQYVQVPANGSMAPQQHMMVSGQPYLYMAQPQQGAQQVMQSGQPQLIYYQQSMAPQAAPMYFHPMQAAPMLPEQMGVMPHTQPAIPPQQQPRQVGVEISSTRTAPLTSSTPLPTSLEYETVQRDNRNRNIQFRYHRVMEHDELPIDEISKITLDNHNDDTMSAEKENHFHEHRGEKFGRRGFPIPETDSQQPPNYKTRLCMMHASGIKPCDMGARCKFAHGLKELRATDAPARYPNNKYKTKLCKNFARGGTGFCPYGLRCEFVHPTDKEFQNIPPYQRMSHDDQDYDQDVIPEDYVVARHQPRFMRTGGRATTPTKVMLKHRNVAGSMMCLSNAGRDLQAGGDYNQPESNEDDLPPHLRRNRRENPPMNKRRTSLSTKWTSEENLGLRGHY

[4] = Luminescence Cell-Based Dose Retest to Confirm Inhibitors of Cancer Stem Cells. [Related pubchem assays (depositor defined):AID2717, AID2721]; assay type: functional; conditions: Homo sapiens
Streptococcus = test: Group A Streptococcus viability loss, dose response, counter-screen for streptokinase expression inhibitor project, luminescence, BacTiterGlo (AID 1915); assay type: functional, organism-based;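 note: potency for reduction of bacterial viability or growth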
[5] = target: Heat shock protein HSP 90-alpha (Homo sapiens, UniProt P07900); assay type: functional, organism-based
Streptokinase A = target: T3, Streptokinase A (Streptococcus pyogenes serotype M1, UniProt P10520); test: S. pyogenes streptokinase expression inhibitors, potency, dose response, plasminogen activation absorbance, OD405 (AID 1914); assay type: functional, Streptococcus pyogenes M1 GAS;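 note: secreted streptokinase activity via plasminogen activation per viability signal from cell pellet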
T3 sequence (P10520 whole entry): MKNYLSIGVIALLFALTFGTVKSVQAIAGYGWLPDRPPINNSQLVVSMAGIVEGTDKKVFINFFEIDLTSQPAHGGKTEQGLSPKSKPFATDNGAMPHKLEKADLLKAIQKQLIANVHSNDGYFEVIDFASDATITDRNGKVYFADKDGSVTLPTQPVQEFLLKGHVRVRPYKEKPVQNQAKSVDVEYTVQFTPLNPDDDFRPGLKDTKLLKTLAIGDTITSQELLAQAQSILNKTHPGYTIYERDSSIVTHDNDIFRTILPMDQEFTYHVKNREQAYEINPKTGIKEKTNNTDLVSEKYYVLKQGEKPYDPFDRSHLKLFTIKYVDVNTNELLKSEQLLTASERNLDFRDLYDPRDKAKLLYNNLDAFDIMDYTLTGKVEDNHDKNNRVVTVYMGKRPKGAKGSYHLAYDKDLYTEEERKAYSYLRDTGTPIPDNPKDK

[6] = system: Streptococcus sp. 'group A'; test: growth inhibition of control SK(-) GAS strain, dose response, counter-screen for streptokinase expression inhibitor project, luminescence, kanamycin, BacTiterGlo, confirmation (AID 1900); assay type: functional, organism-based
Fatty acid synthase [7] = target: T4, Fatty acid synthase (Homo sapiens, UniProt P49327); test: FAS thioesterase domain inhibitors, dose response, biochemical, kinetic fluorescence intensity (AID 624326); assay type: functional;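 note: rate of fluorescence rise from hydrolysis of a fluorogenic O-methyl fluorescein ester substrate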
T4 sequence (P49327 whole entry, the tested form may be a part): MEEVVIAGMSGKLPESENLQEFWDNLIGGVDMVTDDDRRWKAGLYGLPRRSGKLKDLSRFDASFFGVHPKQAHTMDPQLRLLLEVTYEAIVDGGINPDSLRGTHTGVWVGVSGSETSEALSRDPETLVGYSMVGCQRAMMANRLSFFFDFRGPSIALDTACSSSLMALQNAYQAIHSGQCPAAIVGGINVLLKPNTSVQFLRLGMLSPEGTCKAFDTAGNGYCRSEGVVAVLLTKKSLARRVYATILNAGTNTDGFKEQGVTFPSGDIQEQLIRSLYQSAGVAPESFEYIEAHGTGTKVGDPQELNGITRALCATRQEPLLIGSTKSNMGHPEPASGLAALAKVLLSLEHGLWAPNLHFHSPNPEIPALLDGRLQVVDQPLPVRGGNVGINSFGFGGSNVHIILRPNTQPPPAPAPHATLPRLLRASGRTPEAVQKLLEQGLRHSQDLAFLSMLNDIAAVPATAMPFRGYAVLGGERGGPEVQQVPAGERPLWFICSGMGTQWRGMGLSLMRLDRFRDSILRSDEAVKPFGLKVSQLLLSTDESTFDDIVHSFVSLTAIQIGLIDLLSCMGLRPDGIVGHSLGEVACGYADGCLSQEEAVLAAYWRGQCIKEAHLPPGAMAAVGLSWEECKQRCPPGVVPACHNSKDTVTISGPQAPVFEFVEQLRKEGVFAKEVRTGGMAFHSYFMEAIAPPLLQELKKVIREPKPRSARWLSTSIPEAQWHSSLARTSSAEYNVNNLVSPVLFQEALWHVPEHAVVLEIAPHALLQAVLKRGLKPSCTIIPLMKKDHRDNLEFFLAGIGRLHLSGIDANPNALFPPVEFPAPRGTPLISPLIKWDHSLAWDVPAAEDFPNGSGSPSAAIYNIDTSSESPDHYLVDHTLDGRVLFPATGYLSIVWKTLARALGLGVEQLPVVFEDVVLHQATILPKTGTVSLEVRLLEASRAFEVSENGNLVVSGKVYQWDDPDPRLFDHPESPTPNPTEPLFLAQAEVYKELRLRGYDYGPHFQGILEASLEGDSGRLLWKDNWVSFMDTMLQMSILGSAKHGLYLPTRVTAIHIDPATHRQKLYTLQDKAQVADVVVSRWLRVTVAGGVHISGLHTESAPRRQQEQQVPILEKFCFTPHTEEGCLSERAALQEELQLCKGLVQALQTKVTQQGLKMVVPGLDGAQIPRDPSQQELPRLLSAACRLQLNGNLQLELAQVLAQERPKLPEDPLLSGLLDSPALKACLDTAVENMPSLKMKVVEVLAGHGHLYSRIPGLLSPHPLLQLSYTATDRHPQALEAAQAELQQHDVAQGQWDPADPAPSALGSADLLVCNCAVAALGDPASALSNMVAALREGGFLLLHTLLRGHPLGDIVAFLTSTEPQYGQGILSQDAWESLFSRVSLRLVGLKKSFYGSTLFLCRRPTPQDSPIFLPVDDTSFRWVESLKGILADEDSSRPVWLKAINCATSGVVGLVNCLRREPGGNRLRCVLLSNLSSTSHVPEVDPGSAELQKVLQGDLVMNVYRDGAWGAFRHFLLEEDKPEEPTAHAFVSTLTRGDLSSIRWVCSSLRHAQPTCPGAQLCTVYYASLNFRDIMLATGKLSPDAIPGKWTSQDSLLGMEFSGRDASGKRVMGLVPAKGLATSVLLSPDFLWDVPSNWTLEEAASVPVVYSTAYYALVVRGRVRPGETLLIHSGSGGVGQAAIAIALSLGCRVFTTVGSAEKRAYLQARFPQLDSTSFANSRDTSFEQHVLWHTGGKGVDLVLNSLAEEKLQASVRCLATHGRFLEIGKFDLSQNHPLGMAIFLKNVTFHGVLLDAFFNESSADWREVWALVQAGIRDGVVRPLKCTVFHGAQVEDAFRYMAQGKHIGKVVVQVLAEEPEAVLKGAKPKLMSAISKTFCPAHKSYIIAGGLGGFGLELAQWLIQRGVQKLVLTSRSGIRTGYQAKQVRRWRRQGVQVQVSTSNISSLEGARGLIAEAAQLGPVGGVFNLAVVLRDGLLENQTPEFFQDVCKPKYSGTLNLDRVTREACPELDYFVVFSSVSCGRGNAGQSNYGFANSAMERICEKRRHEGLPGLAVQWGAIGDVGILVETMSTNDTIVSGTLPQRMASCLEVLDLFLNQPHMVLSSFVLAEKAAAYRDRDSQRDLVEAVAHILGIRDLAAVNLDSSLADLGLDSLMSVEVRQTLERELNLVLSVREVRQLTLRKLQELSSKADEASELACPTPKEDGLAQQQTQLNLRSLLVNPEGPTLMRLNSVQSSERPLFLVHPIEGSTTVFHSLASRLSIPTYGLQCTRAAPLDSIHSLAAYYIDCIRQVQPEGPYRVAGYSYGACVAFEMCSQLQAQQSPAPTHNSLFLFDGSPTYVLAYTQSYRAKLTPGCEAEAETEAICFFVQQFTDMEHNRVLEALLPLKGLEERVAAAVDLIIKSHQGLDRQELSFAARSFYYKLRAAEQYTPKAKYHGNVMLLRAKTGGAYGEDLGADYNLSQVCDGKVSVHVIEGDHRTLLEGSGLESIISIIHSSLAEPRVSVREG

Fatty acid synthase [8] = target: T4, Fatty acid synthase; test: FAS thioesterase domain inhibitors, dose response, biochemical, endpoint fluorescence intensity, uHTS hits (AID 624327); assay type: functional;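 note: fluorescence from hydrolysis of an O-methyl fluorescein acyl ester substrate by the enzyme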
[9] = target: T5, Replicative DNA helicase DnaB (Mycobacterium tuberculosis, UniProt P9WMR3); test: DnaB intein splicing inhibitors, dose response, biochemical, cell-free fluorescence (AID 449749); assay type: functional
T5 sequence (P9WMR3 whole entry): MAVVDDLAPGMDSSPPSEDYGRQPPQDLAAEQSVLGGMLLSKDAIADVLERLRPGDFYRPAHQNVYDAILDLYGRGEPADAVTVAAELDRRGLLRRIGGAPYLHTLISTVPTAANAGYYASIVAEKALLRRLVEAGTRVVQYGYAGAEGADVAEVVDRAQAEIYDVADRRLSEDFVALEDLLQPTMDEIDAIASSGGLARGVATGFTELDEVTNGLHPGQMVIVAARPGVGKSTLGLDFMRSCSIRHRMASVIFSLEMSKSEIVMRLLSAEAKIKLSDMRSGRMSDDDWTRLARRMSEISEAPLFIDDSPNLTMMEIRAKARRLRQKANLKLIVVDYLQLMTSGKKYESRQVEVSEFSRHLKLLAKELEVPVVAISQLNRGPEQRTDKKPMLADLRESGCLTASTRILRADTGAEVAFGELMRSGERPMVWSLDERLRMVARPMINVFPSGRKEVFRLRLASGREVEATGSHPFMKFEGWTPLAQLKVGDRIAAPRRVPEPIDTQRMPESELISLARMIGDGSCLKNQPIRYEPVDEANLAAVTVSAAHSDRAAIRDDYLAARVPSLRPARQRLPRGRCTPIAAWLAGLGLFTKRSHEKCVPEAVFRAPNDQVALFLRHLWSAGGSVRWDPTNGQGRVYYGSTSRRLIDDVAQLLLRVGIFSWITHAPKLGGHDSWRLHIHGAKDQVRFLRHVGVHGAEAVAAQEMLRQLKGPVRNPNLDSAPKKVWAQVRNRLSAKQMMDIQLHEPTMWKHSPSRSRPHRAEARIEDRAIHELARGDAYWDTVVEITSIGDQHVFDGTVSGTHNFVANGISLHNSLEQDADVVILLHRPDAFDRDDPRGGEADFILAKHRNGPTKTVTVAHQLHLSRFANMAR

Protein RecA = target: T6, Protein RecA (Mycobacterium tuberculosis, UniProt P9WHJ3); test: Fluorescence Cell-Free Homogeneous Dose Retest to Identify Inhibitors of RecA-Intein Splicing Activity. [Related pubchem assays (depositor defined):AID2097, AID2223, AID489010, AID492950]; assay type: functional
T6 sequence (P9WHJ3 whole entry): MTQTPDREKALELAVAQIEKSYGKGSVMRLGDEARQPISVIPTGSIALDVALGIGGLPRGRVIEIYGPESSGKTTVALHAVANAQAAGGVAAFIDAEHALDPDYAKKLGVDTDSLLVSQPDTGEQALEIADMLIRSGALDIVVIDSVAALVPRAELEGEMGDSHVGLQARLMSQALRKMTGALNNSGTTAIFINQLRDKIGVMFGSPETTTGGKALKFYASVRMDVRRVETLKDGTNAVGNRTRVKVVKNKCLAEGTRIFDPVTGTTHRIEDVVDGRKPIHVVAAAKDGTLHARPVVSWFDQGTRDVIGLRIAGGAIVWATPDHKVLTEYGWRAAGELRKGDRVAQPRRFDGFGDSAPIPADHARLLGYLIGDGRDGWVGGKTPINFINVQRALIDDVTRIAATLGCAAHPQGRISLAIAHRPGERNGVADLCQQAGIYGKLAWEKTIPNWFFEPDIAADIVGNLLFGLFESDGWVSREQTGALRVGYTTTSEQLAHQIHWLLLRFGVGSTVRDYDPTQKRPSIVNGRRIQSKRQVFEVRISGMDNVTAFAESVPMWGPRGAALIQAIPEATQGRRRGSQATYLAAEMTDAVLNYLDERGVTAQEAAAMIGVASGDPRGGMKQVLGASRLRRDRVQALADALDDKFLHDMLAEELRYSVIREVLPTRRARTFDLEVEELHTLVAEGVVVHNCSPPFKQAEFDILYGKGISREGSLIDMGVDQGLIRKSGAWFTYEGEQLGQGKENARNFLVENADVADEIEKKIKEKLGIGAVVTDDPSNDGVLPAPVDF

[10] = inhibitors of SNCA 5'UTR-driven reporter translation, confirmation, H4 neuroglioma cells, luminescence (AID 1988); assay type: functional, cell-based
[11] = inhibitors of firefly luciferase expression or activity, dose response, H4 neuroglioma cells, luminescence (AID 1990); assay type: functional, cell-based
INS1 = test: beta cell apoptosis inhibitors, cytokine rescue, dose response, luminescence, retest (AID 449756); assay type: functional, cell-based; conditions: Rattus norvegicus;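 note: cell death triggered by IL-1 beta plus TNF-alpha plus IFN-gamma mixture; protective hits raise ATP signal compared with cytokine alone wells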
[12] = Luminescence Cell-Based Dose Response HTS to Identify Inhibitors of 5'UTR Stem-Loop Driven Prion Protein mRNA Translation in H4 Neuroglioblastoma Cells. [Related pubchem assays: 1827 (Project Summary), 1813 (Primary HTS)]; assay type: functional
[13] = P. falciparum Dd2 growth inhibitors, dose response, SYBR Green, cherry-picked samples (AID 1159567); assay type: functional, cell-based
[14] = growth suppression of PTEN-null colon cells, dose response, cell-based, HCT116 PTEN knockout (AID 1047); assay type: functional;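 note: HCT116 colon tumor cells with PTEN knocked out; cells exposed to compound for 60 hours before readout; potency for loss of cell viability measured by luminescence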
[15] = growth suppression of beta-catenin-knockout colon cells, dose response, cell-based, HCT116, human colon tumor (AID 1045); assay type: functional;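 note: HCT116 colon tumor cells with beta catenin knocked out; cells exposed to compound for 60 hours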
Cytochrome P450 2C9 = Cytochrome P450 2C9 (Homo sapiens, UniProt P11712)
Chain of Cytochrome P450 2C9 (P11712 whole entry): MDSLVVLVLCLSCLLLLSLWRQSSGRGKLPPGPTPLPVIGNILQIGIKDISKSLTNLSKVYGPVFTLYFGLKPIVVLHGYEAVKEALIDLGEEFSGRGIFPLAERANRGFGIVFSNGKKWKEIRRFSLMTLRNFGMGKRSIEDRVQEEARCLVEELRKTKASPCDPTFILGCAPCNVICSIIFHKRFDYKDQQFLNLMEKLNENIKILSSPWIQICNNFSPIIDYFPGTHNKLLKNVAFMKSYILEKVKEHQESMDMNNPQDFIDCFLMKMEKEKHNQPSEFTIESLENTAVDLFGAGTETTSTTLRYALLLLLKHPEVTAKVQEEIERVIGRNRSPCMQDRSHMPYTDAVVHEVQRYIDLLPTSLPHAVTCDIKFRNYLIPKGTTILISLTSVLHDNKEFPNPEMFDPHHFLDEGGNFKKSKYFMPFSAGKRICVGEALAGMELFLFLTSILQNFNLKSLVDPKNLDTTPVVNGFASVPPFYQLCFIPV

SMILES: COc1ccc(/N=C/c2cc3c(cc2O)OC(N)=C(C#N)C3c2ccccc2)cc1 (stereo not drawn)
- EC50 [1]: > 300 µM (not active)
- CC50 [2]: 8.02 µM (active)
- EC50 [3]: > 300 µM (not active)

SMILES: CC(C)(C)c1cc(NCc2ccccn2)n2ncc(-c3ccccc3)c2n1
- AC50 [4]: 6.82 µM (active)
- EC50 (Streptococcus): 13.8 µM (active)
- AC50 [5]: 1.63 µM (active)
- EC50 (Streptokinase A): 30 µM (active)
- EC50 [6]: 0.722 µM (active)

SMILES: O=C1C=CC(=O)C2C1C1(Cl)C(Cl)=C(Cl)C2(Cl)C1(Cl)Cl (stereo not drawn)
- AC50 [5]: 7.83 µM (active)
- IC50 (Fatty acid synthase [7]): 13.8 µM (active)
- IC50 (Fatty acid synthase [8]): 14.8 µM (active)

SMILES: O=Nc1c(O)c2ccccc2c2ccccc12
- AC50 [9]: 4.39 µM (active)
- EC50 (Protein RecA): 5.3 µM (active)
- EC50 (Streptococcus): 10.8 µM (active)
- AC50 [5]: 1.03 µM (active)
- EC50 (Streptokinase A): 7.11 µM (active)
- EC50 [10]: > 120 µM (not active)
- EC50 [11]: 8.1 µM (active)
- EC50 [6]: 1.68 µM (active)
- AC50 (INS1): 7.86 µM (active)
- EC50 [12]: > 120 µM (not active)

SMILES: COc1cc2c(cc1OC)C(=O)N1[C@H]3c4ccccc4OC[C@@H]3[C@H](c3ccccc3)[C@]1(C)C(=O)N2
- AC50 [5]: 9.07 µM (active)

SMILES: C[C@H](CO)N1C[C@H](C)[C@H](CN(C)S(=O)(=O)c2cccs2)Oc2ccc(NC(=O)Cc3cn(C)c4ccccc34)cc2C1=O
- AC50 [13]: 5.02 µM (active)

SMILES: COc1cccc(-c2nc(Oc3cc(C)cc(C)c3)c3ccccc3n2)c1O
- EC50 [14]: 8.12 µM (active)
- EC50 [15]: 13.7 µM (active)

SMILES: COc1cc(/C=N/O)cc(Br)c1OCc1cccc(Cl)c1
- AC50 [4]: 5.56 µM (active)
- AC50 [5]: 7.99 µM (active)
- AC50 (Cytochrome P450 2C9): inconclusive
